EC50 data for one compound are collected here from BindingDB's records for doi:10.1016/j.bmc.2012.10.036 (Glaxosmithkline, 2012).

Molecules are shown by their SMILES.

The experiment is described as follows: Inhibition of glucocorticoid receptor in human H13 cells assessed as inhibition of glucocorticoid-induced cell proliferation after 3 hrs by [3H]-thymidine incorporation assay. In general terms: Uptake of a labelled nucleoside into DNA is a usual measure of proliferation.

Usually EC50 stands for the concentration at which the effect is half-maximal.

As for `CC[C@H]1OC(=O)[C@H](C)[C@@H](O[C@H]2C[C@@](C)(OC)[C@@H](O)[C@H](C)O2)[C@H](C)[C@@H](O[C@@H]2O[C@H](C)C[C@H](N(C)C)[C@H]2O)[C@](C)(O)C[C@@H](C)CN(CCCNC(=O)[C@H]2[C@H](C)C[C@H]3[C@@H]4CCC5=CC(=O)C=C[C@]5(C)[C@@]4(F)[C@@H](O)C[C@@]32C)[C@H](C)[C@@H](O)[C@]1(C)O`, the EC50 was determined as 50 nM.
